# Data published in ChEMBL document CHEMBL5500370, “Discovery of potent and novel dual NAMPT/BRD4 inhibitors for efficient treatment of hepatocellular carcinoma” (Eur J Med Chem, 2024).
# How the values were obtained:
# [1] = biological target: Bromodomain-containing protein 4 (Homo sapiens, UniProt O60885); test: Inhibition of BRD4 (unknown origin) incubated for 120 mins by TR-FRET assay
# [2] = biological target: Nicotinamide phosphoribosyltransferase (Homo sapiens, UniProt P43490); test: Inhibition of recombinant NAMPT (unknown origin) by fluorescence based assay
# [3] = tested on: Hep 3B2; test: cells; conditions: Homo sapiens, Hep3B, 120 h
# [4] = tested on: Hep 3B2; test: Induction of cell cycle arrest at G0/G1 phase in human Hep3B cells at 10 uM measured after 72 hrs by PI/RNase staining based flow cytometry (reference value: 56.73 %); format: functional
# [5] = tested on: Hep 3B2; test: Synergistic antiproliferative activity against human Hep3B cells measured after 72 hrs in presence of FK866; format: functional, cell-based
# [6] = tested on: HCCLM3; test: Antitumor activity against human HCCLM3 cells xenografted in BALB/c nude mouse at 60 mg/kg, ip for 27 days relative to control; format: functional; conditions: time 27 day
# [7] = tested on: Hep 3B2; test: Induction of apoptosis in human Hep3B cells assessed as necrotic cells at 10 uM measured after 72 hrs by Annexin V-FITC/PI staining based flow cytometry (reference value: 2.74 %); format: functional
# [8] = tested on: Hep 3B2; test: Induction of cell cycle arrest at S phase in human Hep3B cells at 10 uM measured after 72 hrs by PI/RNase staining based flow cytometry (reference value: 31.90 %); format: functional
# [9] = Antiproliferative activity against human LX2 cells incubated for 120 hrs by MTT assay; format: toxicity, cell-based; conditions: LX-2 cells
# [10] = tested on: Hep 3B2; test: Induction of apoptosis in human Hep3B cells assessed as viable cells at 10 uM measured after 72 hrs by Annexin V-FITC/PI staining based flow cytometry (reference value: 94.08 %); format: functional
# [11] = tested on: Hep 3B2; test: Induction of apoptosis in human Hep3B cells assessed as early apoptotic cells at 10 uM measured after 72 hrs by Annexin V-FITC/PI staining based flow cytometry (reference value: 2.13 %); format: functional
# [12] = Antiproliferative activity against human LX2 cells incubated for 120 hrs in presence of FK866 by MTT assay; format: toxicity, cell-based; conditions: LX-2 cells
# [13] = tested on: Huh-7; test: cells; conditions: Homo sapiens, Huh-7, 120 h
# [14] = tested on: Hep 3B2; test: Antiproliferative activity against human Hep3B cells measured after 72 hrs; format: functional, cell-based
# [15] = tested on: Huh-7; test: Antiproliferative activity against human Huh-7 cells incubated for 120 hrs in presence of FK866 by MTT assay; format: functional, cell-based; conditions: Huh-7, 120 h
# [16] = tested on: Hep 3B2; test: Induction of cell cycle arrest at G2/M phase in human Hep3B cells at 10 uM measured after 72 hrs by PI/RNase staining based flow cytometry (reference value: 11.37 %); format: functional
# [17] = tested on: Hep 3B2; test: Induction of apoptosis in human Hep3B cells assessed as late apoptotic cells at 10 uM measured after 72 hrs by Annexin V-FITC/PI staining based flow cytometry (reference value: 1.05 %); format: functional
# [18] = tested on: HCCLM3; test: cells; conditions: Homo sapiens, HCCLM3, 120 h
# [19] = tested on: HCCLM3; test: Antiproliferative activity against human HCCLM3 cells incubated for 120 hrs in presence of FK866 by MTT assay; format: functional, cell-based; conditions: HCCLM3, 120 h
# [20] = tested on: HCCLM3; test: Antiproliferative activity against human HCCLM3 cells incubated for 120 hrs in presence of JQ1 by MTT assay; format: functional, cell-based; conditions: HCCLM3, 120 h
# [21] = tested on: Huh-7; test: Antiproliferative activity against human Huh-7 cells incubated for 120 hrs in presence of JQ1 by MTT assay; format: functional, cell-based; conditions: Huh-7, 120 h
# [22] = Antiproliferative activity against human LX2 cells incubated for 120 hrs in presence of JQ1 by MTT assay; format: toxicity, cell-based; conditions: LX-2 cells
# [23] = tested on: Hep 3B2; test: Synergistic antiproliferative activity against human Hep3B cells measured after 72 hrs in presence of JQ1; format: functional, cell-based
# Sequence of Nicotinamide phosphoribosyltransferase (P43490 whole entry): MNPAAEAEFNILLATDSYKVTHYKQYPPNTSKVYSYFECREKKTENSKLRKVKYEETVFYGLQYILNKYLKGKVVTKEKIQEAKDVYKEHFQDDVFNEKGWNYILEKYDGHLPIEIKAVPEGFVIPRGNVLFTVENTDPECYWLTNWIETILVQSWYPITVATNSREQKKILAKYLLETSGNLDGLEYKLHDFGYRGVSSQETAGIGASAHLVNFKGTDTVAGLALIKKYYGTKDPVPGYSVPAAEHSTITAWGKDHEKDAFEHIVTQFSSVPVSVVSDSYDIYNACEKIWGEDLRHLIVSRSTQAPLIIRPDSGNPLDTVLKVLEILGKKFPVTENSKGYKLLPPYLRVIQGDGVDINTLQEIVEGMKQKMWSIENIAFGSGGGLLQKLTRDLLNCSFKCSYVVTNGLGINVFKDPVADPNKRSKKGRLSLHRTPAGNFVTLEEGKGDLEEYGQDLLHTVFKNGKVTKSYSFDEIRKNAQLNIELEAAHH
structure (smiles),measurement,setting,value
Cc1sc2c(c1C)C(c1ccc(Cl)cc1)=N[C@@H](CC(=O)N1CCC(CCCCNC(=O)/C=C/c3cccnc3)CC1)c1nnc(C)n1-2,IC50,[1],> 1000 nM
same,IC50,[2],35 nM
same,IC50,[3],8080 nM
Cc1sc2c(c1C)C(c1ccc(Cl)cc1)=N[C@@H](CC(=O)NCc1ccc(CNC(=O)/C=C/c3cccnc3)cc1)c1nnc(C)n1-2,IC50,[1],129 nM
same,IC50,[2],199 nM
same,IC50,[3],4550 nM
Cc1sc2c(c1C)C(c1ccc(Cl)cc1)=N[C@@H](CC(=O)NCc1ccc(NC(=O)/C=C/c3cccnc3)cc1)c1nnc(C)n1-2,IC50,[1],319 nM
same,IC50,[2],309 nM
same,IC50,[3],9560 nM
Cc1sc2c(c1C)C(c1ccc(Cl)cc1)=N[C@@H](CC(=O)N1CCC(CNC(=O)/C=C/c3cccnc3)CC1)c1nnc(C)n1-2,IC50,[1],141 nM
same,IC50,[2],> 1000 nM
same,IC50,[3],5730 nM
Cc1sc2c(c1C)C(c1ccc(Cl)cc1)=N[C@@H](CC(=O)N1CCC(NC(=O)/C=C/c3cccnc3)CC1)c1nnc(C)n1-2,IC50,[1],276 nM
same,IC50,[2],> 1000 nM
same,IC50,[3],5390 nM
Cc1sc2c(c1C)C(c1ccc(Cl)cc1)=N[C@@H](CC(=O)NCCCCCNC(=O)/C=C/c1cccnc1)c1nnc(C)n1-2,IC50,[1],387 nM
same,IC50,[2],115 nM
same,IC50,[3],11300 nM
Cc1sc2c(c1C)C(c1ccc(Cl)cc1)=N[C@@H](CC(=O)OC(C)(C)C)c1nnc(C)n1-2,Activity,[4],73.49%
same,IC50,[5],1550 nM
same,TGI,[6],51.08%
same,IC50,[3],5000 nM
same,Activity,[7],3.54%
same,Activity,[8],17.92%
same,IC50 at 120 h,[9],< 32 nM
same,Activity,[10],74.38%
same,Activity,[11],16.25%
same,IC50 at 120 h,[12],< 32 nM
same,IC50,[13],62800 nM
same,IC50,[14],5000 nM
same,IC50,[15],670 nM
same,Activity,[16],8.59%
same,Activity,[17],5.83%
same,IC50,[18],86200 nM
same,IC50,[19],400 nM
Cc1sc2c(c1C)C(c1ccc(Cl)cc1)=N[C@@H](CC(=O)NCCNC(=O)/C=C/c1cccnc1)c1nnc(C)n1-2,IC50,[1],50 nM
same,IC50,[2],410 nM
same,IC50,[3],12900 nM
Cc1sc2c(c1C)C(c1ccc(Cl)cc1)=N[C@@H](CC(=O)Nc1ccc(NC(=O)/C=C/c3cccnc3)cc1)c1nnc(C)n1-2,IC50,[1],> 1000 nM
same,IC50,[2],456 nM
same,IC50,[3],24700 nM
Cc1sc2c(c1C)C(c1ccc(Cl)cc1)=N[C@@H](CC(=O)NCCCCCCNC(=O)/C=C/c1cccnc1)c1nnc(C)n1-2,IC50,[1],153 nM
same,IC50,[2],12 nM
same,IC50,[3],8140 nM
O=C(/C=C/c1cccnc1)NCCCCC1CCN(C(=O)c2ccccc2)CC1 [DAPORINAD],Activity,[4],63.07%
same,inhibition in vivo at 60 mg/kg,"[6]; Mus musculus, HCCLM3, 648 h, read-out: TGI",50.1%
same,IC50,[3],53700 nM
same,Activity,[7],3.67%
same,Activity,[8],28.62%
same,IC50 at 120 h,[9],210 nM
same,viability at 10 µM,"[10]; Homo sapiens, Hep3B, read-out: Activity",86.9%
same,Activity,[11],5.13%
same,IC50,[20],400 nM
same,IC50,[13],2120 nM
same,IC50,[14],53700 nM
same,IC50,[21],670 nM
same,IC50 at 120 h,[22],< 32 nM
same,Activity,[16],8.31%
same,Activity,[17],4.26%
same,IC50,[23],1550 nM
same,IC50,[18],1010 nM
Cc1sc2c(c1C)C(c1ccc(Cl)cc1)=N[C@@H](CC(=O)NCCOCCNC(=O)/C=C/c1cccnc1)c1nnc(C)n1-2,IC50,[1],315 nM
same,IC50,[2],167 nM
same,IC50,[3],27300 nM
Cc1sc2c(c1C)C(c1ccc(Cl)cc1)=N[C@@H](CC(=O)Nc1ccc(CCNC(=O)/C=C/c3cccnc3)cc1)c1nnc(C)n1-2,IC50,[1],> 1000 nM
same,IC50,[2],17 nM
same,IC50,[3],11700 nM
Cc1sc2c(c1C)C(c1ccc(Cl)cc1)=N[C@@H](CC(=O)NCCCCNC(=O)/C=C/c1cccnc1)c1nnc(C)n1-2,IC50,[1],127 nM
same,IC50,[2],10 nM
same,IC50,[3],9090 nM
Cc1sc2c(c1C)C(c1ccc(Cl)cc1)=N[C@@H](CC(=O)N1CCC(CCNC(=O)/C=C/c3cccnc3)CC1)c1nnc(C)n1-2,IC50,[1],180 nM
same,IC50,[2],87 nM
same,IC50,[3],6260 nM
Cc1sc2c(c1C)C(c1ccc(Cl)cc1)=N[C@@H](CC(=O)N1CCC(CCCNC(=O)/C=C/c3cccnc3)CC1)c1nnc(C)n1-2,IC50,[1],615 nM
same,IC50,[2],165 nM
same,IC50,[3],4820 nM
Cc1sc2c(c1C)C(c1ccc(Cl)cc1)=N[C@@H](CC(=O)NCCOCCOCCNC(=O)/C=C/c1cccnc1)c1nnc(C)n1-2,IC50,[1],525 nM
same,IC50,[2],13 nM
same,IC50,[3],21900 nM
